In ChEMBL document CHEMBL1275577, “Study of the in vitro activities of rifaximin and comparator agents against 536 anaerobic intestinal bacteria from the perspective of potential utility in pathology involving bowel flora” (Antimicrob Agents Chemother, 2009):
Converted amounts (≈) assume the structure as drawn.

How the values were obtained:
Assay type in all cases: functional
Cutibacterium acnes = assay: Antimicrobial activity against Propionibacterium acnes by Wadsworth agar dilution method
[1] = test system: Lactobacillus catenaformis; assay: Antimicrobial activity against Lactobacillus catenaformis by Wadsworth agar dilution method; conditions: Eggerthia catenaformis
Anaerococcus prevotii = assay: Antimicrobial activity against Anaerococcus prevotii by Wadsworth agar dilution method
[2] = test system: Enterocloster clostridioformis; assay: Antimicrobial activity against Clostridium clostridioforme by Wadsworth agar dilution method
[3] = test system: Ruminococcus flavefaciens; assay: Antimicrobial activity against Ruminococcus flavefaciens by Wadsworth agar dilution method
Holdemania filiformis = assay: Antimicrobial activity against Holdemania filiformis by Wadsworth agar dilution method
Clostridium leptum = assay: Antimicrobial activity against Clostridium leptum by Wadsworth agar dilution method
Fusobacterium mortiferum [4] = assay: Antimicrobial activity against Fusobacterium mortiferum by Wadsworth agar dilution method in presence of beta-lactamase inhibitor Sulbactam
Ruminococcus lactaris = assay: Antimicrobial activity against Ruminococcus lactaris by Wadsworth agar dilution method
Eubacterium callanderi = assay: Antimicrobial activity against Eubacterium callanderi by Wadsworth agar dilution method
Clostridium sporogenes = assay: Antimicrobial activity against Clostridium sporogenes by Wadsworth agar dilution method
Hoylesella loescheii = assay: Antimicrobial activity against Prevotella loescheii by Wadsworth agar dilution method
Clostridium subterminale = assay: Antimicrobial activity against Clostridium subterminale by Wadsworth agar dilution method
Lactobacillus sp. = assay: Antimicrobial activity against Lactobacillus sp. by Wadsworth agar dilution method
Prevotella disiens = assay: Antimicrobial activity against Prevotella disiens by Wadsworth agar dilution method
[5] = test system: Paeniclostridium sordellii; assay: Antimicrobial activity against Clostridium sordellii by Wadsworth agar dilution method; conditions: Paraclostridium sordellii
Bifidobacterium dentium = assay: Antimicrobial activity against Bifidobacterium dentium by Wadsworth agar dilution method
Actinomyces viscosus = assay: Antimicrobial activity against Actinomyces viscosus by Wadsworth agar dilution method
Anaerococcus tetradius = assay: Antimicrobial activity against Anaerococcus tetradius by Wadsworth agar dilution method
Fusobacterium mortiferum [6] = assay: Antimicrobial activity against Clostridium rectum by Wadsworth agar dilution method
Blautia luti = assay: Antimicrobial activity against Ruminococcus luti by Wadsworth agar dilution method
[7] = test system: Peptoniphilus asaccharolyticus; assay: Antimicrobial activity against Peptoniphilus asaccharolyticus by Wadsworth agar dilution method
Bacteroides nordii = assay: Antimicrobial activity against Bacteroides nordii by Wadsworth agar dilution method
Ruminococcus gnavus = assay: Antimicrobial activity against Ruminococcus gnavus by Wadsworth agar dilution method; conditions: Mediterraneibacter gnavus
Desulfovibrio sp. = assay: Antimicrobial activity against Desulfovibrio sp. by Wadsworth agar dilution method
[Clostridium] innocuum = Antimicrobial activity against Clostridium innocuum by Wadsworth agar dilution method
Clostridium bartlettii = assay: Antimicrobial activity against Clostridium bartlettii by Wadsworth agar dilution method; conditions: Intestinibacter bartlettii
Bacteroides caccae = assay: Antimicrobial activity against Bacteroides caccae by Wadsworth agar dilution method
Clostridium cocleatum = assay: Antimicrobial activity against Clostridium cocleatum by Wadsworth agar dilution method; conditions: Thomasclavelia cocleata
Porphyromonas = assay: Antimicrobial activity against Porphyromonas sp. by Wadsworth agar dilution method
Ruminococcus obeum = assay: Antimicrobial activity against Ruminococcus obeum by Wadsworth agar dilution method; conditions: Blautia obeum
[8] = test system: Bifidobacterium adolescentis; assay: Antimicrobial activity against Bifidobacterium adolescentis by Wadsworth agar dilution method
[9] = test system: Limosilactobacillus fermentum; assay: Antimicrobial activity against Lactobacillus fermentum by Wadsworth agar dilution method
Eubacterium limosum = assay: Antimicrobial activity against Eubacterium limosum by Wadsworth agar dilution method
Desulfovibrio vulgaris = assay: Antimicrobial activity against Desulfovibrio vulgaris by Wadsworth agar dilution method; conditions: Nitratidesulfovibrio vulgaris
Parvimonas micra = assay: Antimicrobial activity against Peptostreptococcus micros by Wadsworth agar dilution method
[10] = test system: Coprobacillus cateniformis; assay: Antimicrobial activity against Coprobacillus cateniformis by Wadsworth agar dilution method
Schaalia meyeri = assay: Antimicrobial activity against Actinomyces meyeri by Wadsworth agar dilution method
Clostridium fallax = assay: Antimicrobial activity against Clostridium fallax by Wadsworth agar dilution method
[11] = test system: Peptostreptococcus anaerobius; assay: Antimicrobial activity against Peptostreptococcus anaerobius by Wadsworth agar dilution method
Bifidobacterium breve = assay: Antimicrobial activity against Bifidobacterium breve by Wadsworth agar dilution method
[12] = test system: Clostridium aminobutyricum; assay: Antimicrobial activity against Clostridium aminobutyricum by Wadsworth agar dilution method
Eubacterium cylindroides = assay: Antimicrobial activity against Eubacterium cylindroides by Wadsworth agar dilution method; conditions: Faecalitalea cylindroides
Clostridium spiroforme = assay: Antimicrobial activity against Clostridium spiroforme by Wadsworth agar dilution method; conditions: Thomasclavelia spiroformis
Fusobacterium nucleatum = assay: Antimicrobial activity against Fusobacterium nucleatum by Wadsworth agar dilution method
Clostridium glycolicum = assay: Antimicrobial activity against Clostridium glycolicum by Wadsworth agar dilution method; conditions: Terrisporobacter glycolicus
Bilophila wadsworthia = assay: Antimicrobial activity against Bilophila wadsworthia by Wadsworth agar dilution method in presence of 1% pyruvic acid

NC[C@@H]1O[C@H](O[C@H]2[C@@H](O)[C@H](O[C@@H]3[C@@H](O)[C@H](N)C[C@H](N)[C@H]3O[C@H]3O[C@H](CN)[C@@H](O)[C@H](O)[C@H]3N)O[C@@H]2CO)[C@H](N)[C@@H](O)[C@@H]1O [FRAMYCETIN]
MIC50 (Cutibacterium acnes): 128 µg/mL (≈ 208 µM)
MIC90 (Cutibacterium acnes): 1020 µg/mL (≈ 1670 µM)
MIC50 [1]: 128 µg/mL (≈ 208 µM)
MIC90 [1]: 1020 µg/mL (≈ 1670 µM)
MIC50 (Anaerococcus prevotii): 128 µg/mL (≈ 208 µM)
MIC90 (Anaerococcus prevotii): 512 µg/mL (≈ 833 µM)
MIC50 [2]: 128 µg/mL (≈ 208 µM)
MIC90 [2]: 128 µg/mL (≈ 208 µM)
MIC50 [3]: 128 µg/mL (≈ 208 µM)
MIC90 [3]: 512 µg/mL (≈ 833 µM)
MIC50 (Holdemania filiformis): 128 µg/mL (≈ 208 µM)
MIC90 (Holdemania filiformis): 1020 µg/mL (≈ 1670 µM)
MIC50 (Clostridium leptum): 256 µg/mL (≈ 416 µM)
MIC90 (Clostridium leptum): 1020 µg/mL (≈ 1670 µM)
MIC50 (Fusobacterium mortiferum [4]): 512 µg/mL
MIC90 (Fusobacterium mortiferum [4]): > 1020 µg/mL
MIC50 (Ruminococcus lactaris): 128 µg/mL (≈ 208 µM)
MIC90 (Ruminococcus lactaris): 512 µg/mL (≈ 833 µM)
MIC50 (Eubacterium callanderi): 128 µg/mL (≈ 208 µM)
MIC90 (Eubacterium callanderi): 1020 µg/mL (≈ 1670 µM)
MIC50 (Clostridium sporogenes): 256 µg/mL (≈ 416 µM)
MIC90 (Clostridium sporogenes): 1020 µg/mL (≈ 1670 µM)
MIC50 (Hoylesella loescheii): 512 µg/mL (≈ 833 µM)
MIC90 (Hoylesella loescheii): 1020 µg/mL (≈ 1670 µM)
MIC50 (Clostridium subterminale): 256 µg/mL (≈ 416 µM)
MIC90 (Clostridium subterminale): 1020 µg/mL (≈ 1670 µM)
MIC50 (Lactobacillus sp.): 128 µg/mL (≈ 208 µM)
MIC90 (Lactobacillus sp.): 1020 µg/mL (≈ 1670 µM)
MIC50 (Prevotella disiens): 512 µg/mL (≈ 833 µM)
MIC90 (Prevotella disiens): 1020 µg/mL (≈ 1670 µM)
MIC50 [5]: 256 µg/mL (≈ 416 µM)
MIC90 [5]: 1020 µg/mL (≈ 1670 µM)
MIC50 (Bifidobacterium dentium): 128 µg/mL (≈ 208 µM)
MIC90 (Bifidobacterium dentium): 1020 µg/mL (≈ 1670 µM)
MIC50 (Actinomyces viscosus): 128 µg/mL (≈ 208 µM)
MIC90 (Actinomyces viscosus): 1020 µg/mL (≈ 1670 µM)
MIC50 (Anaerococcus tetradius): 128 µg/mL (≈ 208 µM)
MIC90 (Anaerococcus tetradius): 512 µg/mL (≈ 833 µM)
MIC50 (Fusobacterium mortiferum [6]): 256 µg/mL (≈ 416 µM)
MIC90 (Fusobacterium mortiferum [6]): 1020 µg/mL (≈ 1670 µM)
MIC50 (Blautia luti): 128 µg/mL (≈ 208 µM)
MIC90 (Blautia luti): 512 µg/mL (≈ 833 µM)
MIC50 [7]: 128 µg/mL (≈ 208 µM)
MIC90 [7]: 512 µg/mL (≈ 833 µM)
MIC50 (Bacteroides nordii): > 1020 µg/mL
MIC90 (Bacteroides nordii): > 1020 µg/mL
MIC50 (Ruminococcus gnavus): 128 µg/mL (≈ 208 µM)
MIC90 (Ruminococcus gnavus): 512 µg/mL (≈ 833 µM)
MIC50 (Desulfovibrio sp.): 256 µg/mL (≈ 416 µM)
MIC90 (Desulfovibrio sp.): 1020 µg/mL (≈ 1670 µM)
MIC50 ([Clostridium] innocuum): > 1020 µg/mL
MIC90 ([Clostridium] innocuum): > 1020 µg/mL
MIC50 (Clostridium bartlettii): 256 µg/mL (≈ 416 µM)
MIC90 (Clostridium bartlettii): 1020 µg/mL (≈ 1670 µM)
MIC50 (Bacteroides caccae): > 1020 µg/mL
MIC90 (Bacteroides caccae): > 1020 µg/mL
MIC50 (Clostridium cocleatum): 256 µg/mL (≈ 416 µM)
MIC90 (Clostridium cocleatum): 1020 µg/mL (≈ 1670 µM)
MIC50 (Porphyromonas): 512 µg/mL (≈ 833 µM)
MIC90 (Porphyromonas): > 1020 µg/mL
MIC50 (Ruminococcus obeum): 128 µg/mL (≈ 208 µM)
MIC90 (Ruminococcus obeum): 512 µg/mL (≈ 833 µM)
MIC50 [8]: 128 µg/mL (≈ 208 µM)
MIC90 [8]: 1020 µg/mL (≈ 1670 µM)
MIC50 [9]: 128 µg/mL (≈ 208 µM)
MIC90 [9]: 1020 µg/mL (≈ 1670 µM)
MIC50 (Eubacterium limosum): 128 µg/mL (≈ 208 µM)
MIC90 (Eubacterium limosum): 1020 µg/mL (≈ 1670 µM)
MIC50 (Desulfovibrio vulgaris): 256 µg/mL (≈ 416 µM)
MIC90 (Desulfovibrio vulgaris): 1020 µg/mL (≈ 1670 µM)
MIC50 (Parvimonas micra): 128 µg/mL (≈ 208 µM)
MIC90 (Parvimonas micra): 512 µg/mL (≈ 833 µM)
MIC50 [10]: 128 µg/mL (≈ 208 µM)
MIC90 [10]: 1020 µg/mL (≈ 1670 µM)
MIC50 (Schaalia meyeri): 128 µg/mL (≈ 208 µM)
MIC90 (Schaalia meyeri): 1020 µg/mL (≈ 1670 µM)
MIC50 (Clostridium fallax): 256 µg/mL (≈ 416 µM)
MIC90 (Clostridium fallax): 1020 µg/mL (≈ 1670 µM)
MIC50 [11]: 128 µg/mL (≈ 208 µM)
MIC90 [11]: 512 µg/mL (≈ 833 µM)
MIC50 (Bifidobacterium breve): 128 µg/mL (≈ 208 µM)
MIC90 (Bifidobacterium breve): 1020 µg/mL (≈ 1670 µM)
MIC50 [12]: 256 µg/mL (≈ 416 µM)
MIC90 [12]: 1020 µg/mL (≈ 1670 µM)
MIC50 (Eubacterium cylindroides): 128 µg/mL (≈ 208 µM)
MIC90 (Eubacterium cylindroides): 1020 µg/mL (≈ 1670 µM)
MIC50 (Clostridium spiroforme): 256 µg/mL (≈ 416 µM)
MIC90 (Clostridium spiroforme): 1020 µg/mL (≈ 1670 µM)
MIC50 (Fusobacterium nucleatum): 1020 µg/mL (≈ 1670 µM)
MIC90 (Fusobacterium nucleatum): 1020 µg/mL (≈ 1670 µM)
MIC50 (Clostridium glycolicum): 256 µg/mL (≈ 416 µM)
MIC90 (Clostridium glycolicum): 1020 µg/mL (≈ 1670 µM)
MIC50 (Bilophila wadsworthia): > 1020 µg/mL
MIC90 (Bilophila wadsworthia): > 1020 µg/mL
